Results published in PubChem BioAssay (NCI).
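Results reflect a 48-hour exposure of cells in 96-well plates to compound at five concentrations. Abbreviation: GI50, concentration required for 50% inhibition of growth. The concentration for full growth arrest is given as TGI.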 Where a SMILES comes first, the peptide text is derived from it. [ ]: non-standard residue; d: D form. pGlu = O=C1CC[CH](C(=O)O)N1

What was measured:
Assay in all cases: NCI anticancer screen, dose series, 48 h
[1] = system: HOP-92 NSCLC
[2] = system: MALME-3M melanoma
[3] = system: NCI-H23 lung
[4] = system: NCI/ADR-RES ovarian
[5] = system: SF-295 CNS
[6] = system: SF-539 CNS
[7] = system: SK-OV-3 ovarian
[8] = system: SN12C renal
[9] = system: SNB-75 CNS
[10] = system: SW-620 colon

SMILES	TGI [1]	TGI [2]	TGI [3]	TGI [4]	TGI [5]	TGI [6]	TGI [7]	TGI [8]	TGI [9]	TGI [10]	GI50 [1]	GI50 [2]	GI50 [3]	GI50 [4]	GI50 [5]	GI50 [6]	GI50 [7]	GI50 [8]	GI50 [9]	GI50 [10]
O=C(Nc1ccc([As](=O)(O)O)cc1)Nc1cccc(Cl)c1Cl	> 100 µM	> 100 µM	> 100 µM	> 100 µM	> 100 µM	> 100 µM	> 100 µM	> 100 µM	65.4 µM	> 100 µM	–	–	–	–	–	–	–	–	–	–
Clc1nc(Cl)c2ncn(CC3(Cn4cnc5c(Cl)nc(Cl)nc54)COC3)c2n1	0.876 µM	0.433 µM	0.392 µM	0.573 µM	3.1 µM	2.55 µM	2.98 µM	0.776 µM	0.395 µM	0.651 µM	0.33 µM	0.187 µM	0.194 µM	0.257 µM	1.56 µM	1.24 µM	1.61 µM	0.26 µM	0.201 µM	0.257 µM
O=c1[nH]c(=O)c2cn[nH]c2[nH]1	> 100 µM	> 100 µM	> 100 µM	> 100 µM	> 100 µM	> 100 µM	> 100 µM	> 100 µM	> 100 µM	> 100 µM	> 100 µM	> 100 µM	> 100 µM	> 100 µM	> 100 µM	> 100 µM	> 100 µM	> 100 µM	> 100 µM	> 100 µM
CC(=O)NC1C(OC[C@@H](CC(=O)N[C@@H](CC(=O)O)CC(=O)N[C@H](CC(=O)N[C@@H](CCCN)CC(=O)N[C@@H](CCCN)CC(=O)N[C@H](CC(N)=O)C(C)C)C(C)C)NC(=O)C[C@@H](N)C(C)C)OC(CO)C(O)C1O (stereo not given in full)	> 100 µM	> 100 µM	> 100 µM	> 100 µM	> 100 µM	> 100 µM	> 100 µM	> 100 µM	> 100 µM	> 100 µM	> 100 µM	> 100 µM	> 100 µM	> 100 µM	> 100 µM	> 100 µM	> 100 µM	> 100 µM	> 100 µM	> 100 µM
CCNC(=O)C1CCCN1C(=O)C(CCCN=C(N)N)NC(=O)C(CC(C)C)NC(=O)C(CC(C)C)NC(=O)C(Cc1ccc(O)cc1)NC(=O)C(CO)NC(=O)C(Cc1c[nH]c2ccccc12)NC(=O)C(Cc1cnc[nH]1)NC(=O)C1CCC(=O)N1 (stereo not given) ([pGlu]HWSYLLRP-NHEt; configuration not given here)	> 100 µM	> 100 µM	> 100 µM	> 100 µM	> 100 µM	> 100 µM	> 100 µM	> 100 µM	> 100 µM	> 100 µM	> 100 µM	> 100 µM	> 100 µM	> 100 µM	> 100 µM	> 100 µM	> 100 µM	> 100 µM	> 100 µM	> 100 µM
CCN(Cc1ccc(Cl)cc1)c1ccc(CO)c(Cl)c1	11.1 µM	28.5 µM	22.8 µM	20.9 µM	12.1 µM	26.7 µM	12.9 µM	19.3 µM	17.6 µM	16.4 µM	1.52 µM	12.8 µM	3.23 µM	5.59 µM	0.997 µM	11.9 µM	2.6 µM	4.35 µM	3.4 µM	0.824 µM
